Patent US20220160703A1, “TUMOR-SELECTIVE COMBINATION THERAPY” (The Board of Regents of The University of Texas System, priority 2019, published 2022)

Assays:
[1] = tested on: B16 cells stably harboring a pCMV-NQO1 expression vector; experiment: Cell survival of NQO1 overexpressing B16 cells; assay type: cell-based, murine; conditions: 3 hr exposure, survival 48 hr later
Method: (FIG. 1A) NQO1 positive tumor cell lines MC38, TC-1 and Ag104Ld and NQO1 negative cell lines Panc02 and B16 grown in 48-well plates were treated with β-lap (0-8 μM) for a 3 hr followed by washing and replacing medium. Cell viability was determined by Sulforhodamine B (SRB) Assay 4 days later. […] (FIG. 1C) MC38 cells with CRISPR-based NQO1 Knockout (MC38 NQO1KO #5) planted in 96-well plates were exposed to β-lap for 3 hr and cell survival was assessed 48 hr later. […] (FIG. 1E) MC38 cells were exposed to a lethal dose of β-lap (4 μM) for indicated times, then stained with 7-AAD and Annexin V followed by flow cytometry analysis. […] (FIG. 1H) MC38 and B16 NQO1 #1 cells were exposed to β-lap for a 3 hr. Catalase (1000 U/ml) was added and cell survival was assessed 48 hr later. […] Tumor growth was monitored twice a week.
FIGS. 17A-I (related to FIGS. 1A-J). […] (FIG. 17A) NQO1 expression in different murine cancer cell lines was determined by western blotting assay. […] Cell viability was determined by Sulforhodamine B (SRB) Assay 48 hr later. […] Cell viability was determined by SRB Assay 48 hr later. […] Catalase (1000 U/ml) was added and cell viability was assessed 48 hr later. […] Tumor growth was monitored twice a week. […] Data are shown as mean±SEM. **P<0.01, ***P<0.001, ****P<0.0001 determined by unpaired student t-test (FIG. 17G) or two-way ANOVA (FIG. 17H and FIG. 17I). […]

MC38 tumor = experiment: MC38 subcutaneous syngeneic tumor model; assay type: in vivo, mice

CC1(C)CCC2=C(O1)c1ccccc1C(=O)C2=O [β-lap, β-lapachone]
response to β-lap (cell survival) [1]: sensitivity to β-lap
tumor growth with irradiation (MC38 tumor; 10 Gy + 0.1 mg β-lap, 3 i.t. injections, tumors 100 mm^3): significant inhibition of tumor growth
response with irradiation (MC38 tumor; 10 Gy + β-lap 30 mg/kg i.p. every other day, 6 injections, tumors 50 mm3): significant synergistic responses
therapeutic effect in NQO1 knockout MC38 mouse models (MC38 tumor; NQO1 KO MC38, 0.3 mg i.t. four times): abolished
mice cured (MC38 tumor; WT C57BL/6, 4 doses of β-lap (0.3 mg, i.t.)): 50%
mice with complete tumor rejection (MC38 tumor; local β-lap 15 mg/kg, 7/15 mice): 46.7%
TGI (MC38 tumor; small tumors (about 50 mm^3), β-lap 0.3 mg i.t. four times): 93.0%
antitumor efficacy with anti-IFNAR blocking antibody (MC38 tumor; β-lap 0.1 mg i.t., anti-IFNAR Ab 150 μg): greatly impaired the antitumor efficacy
effect with HMGB1 blockade (MC38 tumor; β-lap 0.3 mg i.t. + anti-HMGB1 200 μg i.p.): diminished the effect
therapeutic effect with neutrophil depletion (MC38 tumor; β-lap 0.3 mg i.t. + anti-Ly-6G 200 μg): greatly impaired the therapeutic effect
tumor regression in IFNAR knockout mice (MC38 tumor; β-lap 0.3 mg i.t. day 9, 12, 15): totally abrogated
therapeutic effect in Ifnar−/− mice (MC38 tumor; β-lap 0.3 mg i.t. four times): abrogated
antitumor effect alone or with CD4+ T cell depletion (MC38 tumor; β-lap 0.3 mg i.t. ± anti-CD4 200 μg): controlled MC38 tumor growth
tumor growth, systemic treatment (MC38 tumor; β-lap 30 mg/kg i.p. six times, anti-PD-L1, tumors about 50-100 mm^3): moderate inhibition of tumor growth
